# Data as given in patent US12077503B2, “Substituted cyclic amides and their use as herbicides” (FMC CORPORATION, priority 2015, dated 2024).
# What was measured:
# Format in all cases: in vivo
# corn (Zea mays) = experiment: Test A preemergence; conditions: Zea mays, pre-emergence, 240 h, 0 to 100 scale (0 no effect, 100 complete control)
# Summary of the method: (§1)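 Preemergence soil spray on seeded pots or post-emergence spray on 1–2 leaf plants, in loam–sand blend. Greenhouse ~10 d. Visual rating 0–100 against untreated plants.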
# [1] = tested on: crabgrass, large (Digitaria sanguinalis); experiment: Test A preemergence; conditions: Digitaria sanguinalis, pre-emergence, 240 h, 0 to 100 scale (0 no effect, 100 complete control), read-out: Plant response rating, Crabgrass, Large
# Summary of the method: as §1
# [2] = tested on: morningglory (Ipomoea spp.); experiment: Test A preemergence; conditions: Ipomoea, pre-emergence, 240 h, 0 to 100 scale (0 no effect, 100 complete control), read-out: Plant response rating, Morningglory
# Summary of the method: as §1
# [3] = tested on: velvetleaf (Abutilon theophrasti); experiment: Test A preemergence; conditions: Abutilon theophrasti, pre-emergence, 240 h, 0 to 100 scale (0 no effect, 100 complete control), read-out: Plant response rating, Velvetleaf
# Summary of the method: as §1
# [4] = tested on: wheat (Triticum aestivum); experiment: Test A preemergence; conditions: Triticum aestivum, pre-emergence, 240 h, 0 to 100 scale (0 no effect, 100 complete control), read-out: Plant response rating, Wheat
# Summary of the method: as §1
# [5] = tested on: crabgrass, large (Digitaria sanguinalis); experiment: Test A postemergence; conditions: Digitaria sanguinalis, post-emergence, 240 h, Postemergence
# Summary of the method: as §1
# [6] = tested on: morningglory (Ipomoea spp.); experiment: Test A postemergence; conditions: Ipomoea, post-emergence, 240 h, Postemergence
# Summary of the method: as §1
# [7] = tested on: velvetleaf (Abutilon theophrasti); experiment: Test A postemergence; conditions: Abutilon theophrasti, post-emergence, 240 h, Postemergence
# Summary of the method: as §1
compound,measurement,setting,value
O=C1NCC(c2ccccc2)C1C(=O)Nc1cc(F)ccc1F (stereo not shown) [Compound 1359],"Corn plant response rating (crop injury, 0 = no effect, 100 = complete kill) at 500 g/ha","corn (Zea mays); 500 g ai/ha, preemergence",0%
same,"Corn plant response rating (crop injury, 0 = no effect, 100 = complete kill) at 125 g/ha","corn (Zea mays); Preemergence, 125 g ai/ha",0%
same,pest or weed control at 500 g/ha,"[1]; 500 g ai/ha, preemergence",20%
same,pest or weed control at 125 g/ha,"[1]; Preemergence, 125 g ai/ha",0%
same,pest or weed control at 500 g/ha,"[2]; 500 g ai/ha, preemergence",0%
same,pest or weed control at 125 g/ha,"[2]; Preemergence, 125 g ai/ha",0%
same,pest or weed control at 500 g/ha,"[3]; 500 g ai/ha, preemergence",0%
same,pest or weed control at 125 g/ha,"[3]; Preemergence, 125 g ai/ha",0%
same,plant injury at 500 g/ha,"[4]; 500 g ai/ha, preemergence",0%
same,plant injury at 125 g/ha,"[4]; Preemergence, 125 g ai/ha",0%
same,pest or weed control at 125 g/ha,"[5]; 125 g ai/ha, visual rating about 10 d after treatment, read-out: Crabgrass, Large plant response rating (0 to 100 scale)",0%
same,pest or weed control at 500 g/ha,"[5]; 500 g ai/ha, visual injury, 0 to 100 scale (0 no effect, 100 complete control), approx. 10 d, read-out: Plant response rating, Crabgrass, Large",0%
same,pest or weed control at 125 g/ha,"[6]; 125 g ai/ha, visual rating about 10 d after treatment, read-out: Morningglory plant response rating (0 to 100 scale)",0%
same,pest or weed control at 500 g/ha,"[6]; 500 g ai/ha, visual injury, 0 to 100 scale (0 no effect, 100 complete control), approx. 10 d, read-out: Plant response rating, Morningglory",0%
same,pest or weed control at 125 g/ha,"[7]; 125 g ai/ha, visual rating about 10 d after treatment, read-out: Velvetleaf plant response rating (0 to 100 scale)",0%
same,pest or weed control at 500 g/ha,"[7]; 500 g ai/ha, visual injury, 0 to 100 scale (0 no effect, 100 complete control), approx. 10 d, read-out: Plant response rating, Velvetleaf",0%
